Laboratory results as given in US20190365843A1, “Antimicrobial Activity of Bioactive Compounds and Their Derivatives” (priority 2018, published 2019).

Experiments:
[1] = tested on: Proteus sp.; assay: Agar diffusion growth inhibition zone, Proteus sp.; type: cell-based, Proteus species; conditions: Proteus sp.; 150 mg; 6 mm = no activity
Protocol: (§1) Among the bacterial agents tested Gram positive and Gram negative bacterial groups represented by Staphylococcus aureus and Enterococcus species and pathogenic members of Enterobacteriaceae, Vibronaceae, Aeromonadaceae, Pseudomonadaceae were tested. Freshly sub-cultured bacterial strains were inoculated into peptone water and incubated for 4 hours at 37° C. and adjusted to a turbidity of 0.5 (Gram Negative Bacilli), 1 (Gram Positive Cocci) and 4 (Pus cells, GNB, & few Budding yeast cells) Mc Farland standards (10^8 CFU/ml) respectively.
(§2) The different bioactive compounds and their derivatives were dissolved and diluted with solvents (DMSO), number of subsequent dilutions was performed to obtain different concentrations of the bioactive compounds and their derivatives. (Working Concentrations).
(§3) Agar well diffusion method is widely used to evaluate the antimicrobial activity of plants or other synthetic products. The suspension (microbial inoculum) was used to inoculate into Muller Hinton Agar Petri plates by lawn culture. Well (diameter 6 mm) were punched in the agar by sterile borer and filled with 50 μl of dissolved extracts. Plates were incubated in incubator at 37° C. for 24 hours and measured the growth inhibition zone diameters in mm compared with that of control (DMSO) showing no growth.
(§4) The bioactive compounds were tested with desired concentrations in 6 mm filter paper discs (Whatman, no. 3) were impregnated with 10 μL of each of the different dilutions. The discs were allowed to remain at room temperature until complete diluent evaporation and kept under refrigeration until ready to be used. 10 μL of diluents used to products were used as control. Tests were performed by Agar disk-diffusion testing method, which is the official method used in many clinical microbiology laboratories for routine antimicrobial susceptibility testing.
(§5) Similar to the procedure used in Agar well diffusion method, the suspension (microbial inoculum) was used to inoculate into Muller Hinton Agar Petri plates by lawn culture. Then, filter paper discs (about 6 mm in diameter), containing the test compound at a desired concentration, were placed on the agar surface. The Petri dishes were incubated under suitable incubation conditions.
(§6) Bioactive compounds showing zone of inhibition beyond the size of 6 mm are considered to be having an anti-microbial activity.

[2] = tested on: Pseudomonas sp.; assay: Agar diffusion growth inhibition zone, Pseudomonas sp.; type: cell-based, Pseudomonas species; conditions: Pseudomonas
Protocol: (§7) Agar well diffusion method is widely used to evaluate the antimicrobial activity of plants or other synthetic products. The suspension (microbial inoculum) was used to inoculate into Muller Hinton Agar Petri plates by lawn culture. Well (diameter 6 mm) were punched in the agar by sterile borer and filled with 50 μl of dissolved extracts. Plates were incubated in incubator at 37° C. for 24 hours and measured the growth inhibition zone diameters in mm compared with that of control (DMSO) showing no growth. The antimicrobial agent diffuses in the agar medium and inhibits the growth of the microbial strain tested (Valgas et al., (2016) Methods for in vitro evaluating antimicrobial activity: A review. Journal of Pharmaceutical Analysis. 6(2):71-9).
(§8) Similar to the procedure used in Agar well diffusion method, the suspension (microbial inoculum) was used to inoculate into Muller Hinton Agar Petri plates by lawn culture. Then, filter paper discs (about 6 mm in diameter), containing the test compound at a desired concentration, were placed on the agar surface. The Petri dishes were incubated under suitable incubation conditions. Generally, antimicrobial agent diffuses into the agar and inhibits germination and growth of the test microorganism and then the diameters of inhibition growth zones are measured (Valgas et al., (2007) Screening methods to determine antibacterial activity of natural products. Brazilian Journal of Microbiology. 38:369-80; Balouiri M et al., (2016) Methods for in vitro evaluating antimicrobial activity: A review. Journal of Pharmaceutical Analysis. 6(2):71-9).

[3] = tested on: Candida abicans; assay: Agar diffusion growth inhibition zone, Candida abicans; type: cell-based, Candida albicans; conditions: 6 mm = no activity
Protocol: as §1, §2, §3, §4, §5, §6

[4] = tested on: Citrobacter sp.; assay: Agar diffusion growth inhibition zone, Citrobacter sp.; type: cell-based, Citrobacter species; conditions: 6 mm = no activity
Protocol: as §1, §2, §3, §4, §5, §6

[5] = tested on: Shigella sp.; assay: Agar diffusion growth inhibition zone, Shigella sp.; type: cell-based, Shigella species; conditions: Shigella
Protocol: as §7, §8

[6] = tested on: EAEC; assay: Agar diffusion growth inhibition zone, EAEC; type: cell-based, Enteroaggregative E. coli; conditions: for zone of inhibition at 100 mg/mL / zone of inhibition at 150 mg/mL: Escherichia coli, 6 mm = no activity
Protocol: as §1, §2, §3, §4, §5, §6

[7] = tested on: Enterococcus sp.; assay: Agar diffusion growth inhibition zone, Enterococcus sp.; type: cell-based, Enterococcus species; conditions: 6 mm = no activity
Protocol: as §1, §2, §3, §4, §5, §6

[8] = tested on: Vibrio cholera; assay: Agar diffusion growth inhibition zone, Vibrio cholera; type: cell-based, Vibrio cholerae; conditions: Vibrio cholerae
Protocol: as §7, §8

[9] = tested on: ETEC; assay: Agar diffusion growth inhibition zone, ETEC; type: cell-based, Enterotoxigenic E. coli; conditions: for inhibition of growth: ETEC; for zone of inhibition at 100000 µg/disc / zone of inhibition at 150000 µg/disc: Escherichia coli
Protocol: as §7, §8

[10] = tested on: Aeromonas sp.; assay: Agar diffusion growth inhibition zone, Aeromonas sp.; type: cell-based, Aeromonas species; conditions: Aeromonas sp., 6 mm = no activity
Protocol: as §1, §2, §3, §4, §5, §6

[11] = tested on: S. aureus; assay: Agar diffusion growth inhibition zone, S. aureus; type: cell-based, Staphylococcus aureus; conditions: Staphylococcus aureus, 6 mm = no activity
Protocol: as §1, §2, §3, §4, §5, §6

[12] = tested on: E. coli ATCC 25922; assay: Agar diffusion growth inhibition zone, E. coli ATCC 25922; type: cell-based; conditions: Escherichia coli, 6 mm = no activity; for zone of inhibition at 100 mg/mL: ATCC25922, 100 mg; for zone of inhibition at 150 mg/mL: ATCC25922, 150 mg
Protocol: as §1, §2, §3, §4, §5, §6

[13] = tested on: Klebsiella sp.; assay: Agar diffusion growth inhibition zone, Klebsiella sp.; type: cell-based, Klebsiella species; conditions: 6 mm = no activity
Protocol: as §1, §2, §3, §4, §5, §6

[14] = tested on: Salmonella typhimurium; assay: Agar diffusion growth inhibition zone, Salmonella typhimurium; type: cell-based; conditions: Salmonella enterica, 6 mm = no activity
Protocol: as §1, §2, §3, §4, §5, §6

[15] = tested on: Pleisiomonas sp.; assay: Agar diffusion growth inhibition zone, Pleisiomonas sp.; type: cell-based, Pleisiomonas species; conditions: Pleisiomonas sp., 6 mm = no activity
Protocol: as §1, §2, §3, §4, §5, §6

SMILES | zone of inhibition at 150 mg/mL [1] [mm] | zone of inhibition at 100000 µg/disc [2] [mm] | zone of inhibition at 150000 µg/disc [2] [mm] | zone of inhibition at 100 mg/mL [3] [mm] | zone of inhibition at 150 mg/mL [3] [mm] | zone of inhibition at 100 mg/mL [4] [mm] | zone of inhibition at 150 mg/mL [4] [mm] | zone of inhibition at 100000 µg/disc [5] [mm] | zone of inhibition at 150000 µg/disc [5] [mm] | zone of inhibition at 100 mg/mL [6] [mm] | zone of inhibition at 150 mg/mL [6] [mm] | zone of inhibition at 100 mg/mL [7] [mm] | zone of inhibition at 150 mg/mL [7] [mm] | zone of inhibition at 100000 µg/disc [8] [mm] | zone of inhibition at 150000 µg/disc [8] [mm] | zone of inhibition at 100000 µg/disc [9] [mm] | zone of inhibition at 150000 µg/disc [9] [mm] | zone of inhibition at 100 mg/mL [10] [mm] | zone of inhibition at 150 mg/mL [10] [mm] | zone of inhibition at 100 mg/mL [11] [mm] | also measured
COc1cc(/C=C/C(=O)COC(=O)/C=C/c2ccc(OC(C)=O)c(OC)c2)ccc1OC(C)=O [compound 6, O,O′- Diacetylcalebin-A] | 6 | 6 | 6 | 6 | 6 | 6 | 6 | 6 | 6 | 7 | 7 | 6 | 6 | 6 | 6 | 8 | 8 | 6 | 6 | 6 | inhibition of growth [6]: inhibited; inhibition of growth [9]: significantly inhibited the growth; zone of inhibition at 150 mg/mL [11]: 6 mm; zone of inhibition at 100 mg/mL [12]: 6 mm; zone of inhibition at 150 mg/mL [12]: 6 mm; zone of inhibition at 100 mg/mL [13]: 6 mm; zone of inhibition at 150 mg/mL [13]: 6 mm; zone of inhibition at 100 mg/mL [14]: 6 mm; zone of inhibition at 150 mg/mL [14]: 6 mm; zone of inhibition at 100 mg/mL [15]: 6 mm; zone of inhibition at 150 mg/mL [15]: 6 mm
COc1cc(CCC(=O)/C=C(\N)CCc2ccc(O)c(OC)c2)ccc1O [compound 9, Amino- tetrahydrocurcumin] | 6 | 6 | 6 | 6 | 6 | 6 | 6 | 6 | 6 | 6 | 6 | 6 | 6 | 6 | 6 | 9 | 9 | 6 | 6 | 6 | zone of inhibition at 150 mg/mL [11]: 6 mm; zone of inhibition at 100 mg/mL [12]: 6 mm; zone of inhibition at 150 mg/mL [12]: 6 mm; zone of inhibition at 100 mg/mL [13]: 6 mm; zone of inhibition at 150 mg/mL [13]: 6 mm; zone of inhibition at 100 mg/mL [14]: 6 mm; zone of inhibition at 150 mg/mL [14]: 6 mm; zone of inhibition at 100 mg/mL [15]: 6 mm; zone of inhibition at 150 mg/mL [15]: 6 mm
COc1cc(/C=C/C(=O)COC(=O)/C=C/c2ccc(O)c(OC)c2)ccc1O [compound 5, Calebin-A] | 6 | 6 | 6 | 6 | 6 | 6 | 6 | 6 | 6 | 7 | 7 | 6 | 6 | 6 | 6 | 11 | 11 | 6 | 6 | 6 | inhibition of growth [6]: inhibited; inhibition of growth [9]: significantly inhibited the growth; zone of inhibition at 150 mg/mL [11]: 6 mm; zone of inhibition at 100 mg/mL [12]: 6 mm; zone of inhibition at 150 mg/mL [12]: 6 mm; zone of inhibition at 100 mg/mL [13]: 6 mm; zone of inhibition at 150 mg/mL [13]: 6 mm; zone of inhibition at 100 mg/mL [14]: 6 mm; zone of inhibition at 150 mg/mL [14]: 6 mm; zone of inhibition at 100 mg/mL [15]: 6 mm; zone of inhibition at 150 mg/mL [15]: 6 mm
